The record followed here is ChEMBL document CHEMBL2169787, “The biology and chemistry of antifungal agents: a review” (2012).

What all share (type): functional
In assay [1] the test system is Aspergillus niger. As to the kind of experiment: Antifungal activity against Aspergillus niger assessed as growth inhibition.
The subject of assay [2] is Aspergillus flavus. Kind of assay: Antifungal activity against Aspergillus flavus assessed as growth inhibition.
Another assay relates to Fusarium verticillioides. Kind of assay: Antifungal activity against Fusarium moniliforme.
A further assay concerns Lasiodiplodia theobromae. As to the kind of experiment: Antifungal activity against Botryodiplodia theobromae.
The subject of assay [3] is Aspergillus flavus. As to the kind of experiment: Antifungal activity against Aspergillus flavus. The conditions noted are these: Aspergillus flavus.
The next assay deals with Candida. As to the kind of experiment: Antifungal activity against Candida spp.
The test system of assay [4] is Candida parapsilosis. As to the kind of experiment: Antifungal activity against Candida parapsilosis. The conditions noted are these: Lodderomyces parapsilosis.
The next assay concerns Microsporum. As to the kind of experiment: Antifungal activity against Microsporum […].
The subject of the next assay is Candida tropicalis. As to the kind of experiment: Antifungal activity against Candida tropicalis.
The test system of another assay is Cryptococcus neoformans. As to the kind of experiment: Antifungal activity against Cryptococcus neoformans.
The test system of a further assay is Trichophyton rubrum. Kind of assay: Antifungal activity against Trichophyton rubrum.
Assay [5] relates to Aspergillus fumigatus. Kind of assay: Antifungal activity against Aspergillus fumigatus.
The test system of the next assay is Staphylococcus aureus. As to the kind of experiment: Antibacterial activity against Staphylococcus aureus.
Assay [6] has as its system Mycobacterium tuberculosis. As to the kind of experiment: Antibacterial activity against Mycobacterium tuberculosis.
The subject of assay [7] is Aspergillus fumigatus. As to the kind of experiment: Antifungal activity against Aspergillus fumigatus AF980003.
Assay [8] relates to Aspergillus fumigatus. Kind of assay: Ratio of compound MIC to itraconazole MIC for Aspergillus fumigatus AF980003.
Assay [9] relates to Candida albicans. Kind of assay: Antifungal activity against Candida albicans CA980001.
Assay [10] concerns Candida albicans. Kind of assay: Ratio of compound MIC to itraconazole MIC for Candida albicans CA980001.
The subject of another assay is Sporothrix schenckii. As to the kind of experiment: Antifungal activity against Sporothrix schenckii.
Assay [11] deals with Candida albicans. As to the kind of experiment: Antifungal activity against Candida albicans. The conditions noted are these: for MIC: Candida albicans.
Assay [12] concerns Candida parapsilosis. Kind of assay: Antifungal activity against Candida parapsilosis ATCC 22019. As to conditions: Lodderomyces parapsilosis.
Assay [13] relates to Trichophyton mentagrophytes. Kind of assay: Antifungal activity against Trichophyton mentagrophytes.
For a further assay, the system named is Microsporum canis. As to the kind of experiment: Antifungal activity against Microsporum canis.
Another assay concerns Aspergillus ochraceus. Kind of assay: Antifungal activity against Aspergillus ochraceus.
The subject of the next assay is Pichia kudriavzevii. As to the kind of experiment: Antifungal activity against Candida krusei.
Assay [14] has as its system Aspergillus niger. Kind of assay: Antifungal activity against Aspergillus niger. The conditions noted are these: for MIC: Aspergillus niger.
A further assay has as its system Trichoderma viride. As to the kind of experiment: Antifungal activity against Trichoderma viride.
Another assay has as its system Fusarium oxysporum. Kind of assay: Antifungal activity against Fusarium oxysporum.
The next assay concerns Trichophyton tonsurans. Kind of assay: Antifungal activity against Trichophyton tonsurans.
The test system of another assay is Macrophomina phaseolina. As to the kind of experiment: Antifungal activity against Macrophomina phaseolina.

Values after ≈ are worked out from the molar mass of the structure shown.

In general, MIC refers to the smallest concentration in the dilution series that meets the test's criterion for growth inhibition.

On to `N#CC(=C1CCCCC1)c1nc2cc(Cl)ccc2o1`, for which the “growth inhibition (GI)” value in the assay on Aspergillus niger [1] and with Aspergillus flavus [2] was 60% each time.

Take `COc1ccc(N2OC(c3ccccc3)CC2c2ccc(-c3ccccc3)cc2)cc1` (centres undefined): the MIC against Fusarium verticillioides, in the assay with Lasiodiplodia theobromae and in the assay on Aspergillus flavus [3] was 2.5 µg/mL (≈ 6.13 µM) throughout.

In the assay with Candida, `CC1=NN(c2ccccc2)C(=O)C12C(C#N)C2(c1ccccc1)c1ccccc1` (centres undefined) came in with an MIC of 25 µg/mL (≈ 66.2 µM).

Consider NYSTATIN, for which the inhibition zone (IZ) in the assay with Candida was 20 mm.

As to `OC(CN1CCN(c2ccc(OCc3ccc(F)cc3)cc2)CC1)(Cn1cncn1)c1ccccc1` (centres undefined), the MIC in the assay on Candida parapsilosis [4], in the assay with Microsporum, against Candida tropicalis, with Cryptococcus neoformans, with Trichophyton rubrum and against Aspergillus fumigatus [5] was 0.0625 µg/mL (≈ 0.128 µM) in each case.

Consider `Cc1cccc(C2=NN(C(N)=S)C(c3cccnc3)C2)c1` (centres undefined), for which the MIC worked out at 128 µg/mL (≈ 432 µM) with Staphylococcus aureus and 6.25 µg/mL (≈ 21.1 µM) in assay [6].

Turning to `Clc1ccccc1Cn1cc(Cn2ccnc2)c2cc(Br)ccc21`, the MIC against Aspergillus fumigatus [7] and in the assay on Candida albicans [9] was 8 µg/mL (≈ 20 µM) each time. Moreover, the Ratio in the assay on Aspergillus fumigatus [8] and in the assay on Candida albicans [10] was 16 in each case.

`C[C@H](CCCN1C=NN(CC(O)(Cn2cncn2)c2ccc(F)cc2F)C1)[C@H]1CC[C@H]2[C@@H]3CC[C@@H]4CCCC[C@]4(C)[C@H]3CC[C@]12C` (some centres undefined): the MIC against Sporothrix schenckii, with Candida albicans [11] and against Candida parapsilosis [12] was 2.18 µg/mL (≈ 3.42 µM) throughout.

On to `CCCn1cc(-c2ccc(Cl)cc2)c(C(c2ccccc2)n2ccnc2)c1` (centres undefined), for which the MIC in the assay on Candida albicans [11] turned out to be 0.016 µg/mL (≈ 0.0426 µM).

With `O=C1C(CO)=C(Sc2ccccc2)C(=O)c2ccccc21`, the MIC (in the assay on Sporothrix schenckii; in [13]; in the assay with Cryptococcus neoformans; with Candida albicans [11]; in the assay with Microsporum canis; against Aspergillus fumigatus [5]) was 0.78 µg/mL (≈ 2.63 µM) in each case.

`CCN(CC)C(=O)C1(C)C2(C(=O)N(c3ccccc3)N=C2C)C1(c1ccccc1)c1ccccc1` (centres undefined) showed an MIC in the assay on Candida of 25 µg/mL (≈ 53.7 µM).

Compound `CCOC(=O)C1(C)C2(C(=O)N(c3ccccc3)N=C2C)C1(c1ccccc1)c1ccccc1` (centres undefined) displayed an MIC against Candida of 25 µg/mL (≈ 57 µM).

Consider `OC(Cn1cncn1)(Cn1cncn1)c1ccc(F)cc1F` [FLUCONAZOLE], for which, in the assay on Cryptococcus neoformans, the lowest concentration to inhibit growth (MIC) was 0.53 µg/mL (≈ 1.73 µM).

For the compound `N#CC1=C(N)OC2=C(SC3=NC4=C(C(=O)CCC4)C(c4ccc(F)cc4)N32)C1c1ccc(Cl)cc1` (centres undefined), the MIC in the assay on Aspergillus ochraceus and against Aspergillus flavus [3] was 40 µg/mL (≈ 79.2 µM) throughout.

The compound `CC1=NN(c2ccccc2)C(=O)C12C(C)(C(=O)OC(C)(C)C)C2(c1ccccc1)c1ccccc1` (centres undefined) showed an MIC with Candida of 25 µg/mL (≈ 53.6 µM).

On to `O=C1CCCC2=C1C(c1ccc(F)cc1)N1C(=O)CSC1=N2` (centres undefined), for which the MIC against Aspergillus ochraceus and in the assay on Aspergillus flavus [3] was 40 µg/mL (≈ 126 µM) in each case.

For the compound `Nc1nc(=O)[nH]cc1F` [FLUCYTOSINE], the MIC in the assay on Candida tropicalis, with Candida albicans [11], in the assay on Pichia kudriavzevii, against Aspergillus flavus [3] and in the assay with Aspergillus niger [14] was 12.5 µg/mL (≈ 96.8 µM) each time.

As to `CC1=NN(c2ccccc2)C(=O)C12C(C)(C#N)C2(c1ccccc1)c1ccccc1` (centres undefined), in the assay with Candida, the MIC was 25 µg/mL (≈ 63.9 µM).

As for `CCCCCCCCCCCCCCCc1nnc(CCCCCCC/C=C/CC(O)CCCCCC)o1` (centres undefined), the “inhibition zone (IZ)” value in the assay on Trichoderma viride, in the assay on Fusarium oxysporum, with Candida albicans [11] and with Aspergillus niger [14] was 15 mm each time.

Consider `C[C@H](CCCN1C=NN(CC(O)(Cn2cncn2)c2ccc(F)cc2F)C1)[C@H]1CC[C@H]2[C@@H]3[C@H](O)C[C@@H]4CCCC[C@]4(C)[C@H]3CC[C@]12C` (some centres undefined), for which the MIC against Sporothrix schenckii, in the assay with Candida albicans [11] and against Candida parapsilosis [12] was 2.18 µg/mL (≈ 3.34 µM) in each case.

For `Clc1ccc(CN(Cc2ccc(-c3ccccc3)cc2)n2ccnc2)c(Cl)c1`, in the assay on Trichophyton rubrum, the MIC is 0.8 µg/mL (≈ 1.96 µM).

As for `Cc1ncc([N+](=O)[O-])n1CC(O)CCl` (centres undefined) [ORNIDAZOLE], the MIC against Trichophyton tonsurans amounted to 0.8 µg/mL (≈ 3.64 µM).

As to `COc1ccc(N2OC(CO)CC2c2ccc(-c3ccccc3)cc2)cc1` (centres undefined), the MIC in the assay with Fusarium verticillioides, in the assay with Lasiodiplodia theobromae and in the assay with Aspergillus flavus [3] was 2.5 µg/mL (≈ 6.92 µM) each time.

For the compound `N#Cc1c(Cl)c(Cl)c(Cl)c(C#N)c1Cl` [CHLOROTHALONIL], the MIC with Fusarium oxysporum (Fusarium oxysporum), against Macrophomina phaseolina and with Aspergillus niger [14] was 52 µg/mL (≈ 196 µM) each time.

On to `CC1=NN(c2ccccc2)C(=O)C12C(C(=O)OC(C)(C)C)C2(c1ccccc1)c1ccccc1` (centres undefined), for which inhibition of growth with Candida (MIC) required 25 µg/mL (≈ 55.2 µM).
